Measured values taken from patent US8911952B2, “Method for integrin ligand discovery” (STC. UNM, priority 2010, dated 2014).
Counter-ions that a name gives are not always drawn. Marks after values point to notes of the source that are not given here. Each block holds one compound with its values, some of them ahead of it.

Key:
[1] = system: hematopoietic stem and progenitor cells (HSPCs); assay: Mobilization of hematopoietic stem and progenitor cells into the peripheral blood; conditions: mouse; for CFU/ml in peripheral Blood / WBC count/ml × 10^6: intraperitoneal, one hour prior to blood collection, thioridazine hydrochloride 1.25 mg/kg, AMD3100 5 mg/kg, Mean ± S.E.
VLA-4 [2] = molecular target: T1, VLA-4 (Homo sapiens, UniProt P05556+P13612); assay: HUTS-21 antibody binding (ligand induced epitope exposure) on U937 cells; assay type: cell-based; set-up: host or cells: U937 (human histiocytic lymphoma); in part of the real-time experiments U937 stably transfected with a non-desensitizing FPR mutant, where VLA-4 itself is endogenous
T1 sequence (P13612 34-1032): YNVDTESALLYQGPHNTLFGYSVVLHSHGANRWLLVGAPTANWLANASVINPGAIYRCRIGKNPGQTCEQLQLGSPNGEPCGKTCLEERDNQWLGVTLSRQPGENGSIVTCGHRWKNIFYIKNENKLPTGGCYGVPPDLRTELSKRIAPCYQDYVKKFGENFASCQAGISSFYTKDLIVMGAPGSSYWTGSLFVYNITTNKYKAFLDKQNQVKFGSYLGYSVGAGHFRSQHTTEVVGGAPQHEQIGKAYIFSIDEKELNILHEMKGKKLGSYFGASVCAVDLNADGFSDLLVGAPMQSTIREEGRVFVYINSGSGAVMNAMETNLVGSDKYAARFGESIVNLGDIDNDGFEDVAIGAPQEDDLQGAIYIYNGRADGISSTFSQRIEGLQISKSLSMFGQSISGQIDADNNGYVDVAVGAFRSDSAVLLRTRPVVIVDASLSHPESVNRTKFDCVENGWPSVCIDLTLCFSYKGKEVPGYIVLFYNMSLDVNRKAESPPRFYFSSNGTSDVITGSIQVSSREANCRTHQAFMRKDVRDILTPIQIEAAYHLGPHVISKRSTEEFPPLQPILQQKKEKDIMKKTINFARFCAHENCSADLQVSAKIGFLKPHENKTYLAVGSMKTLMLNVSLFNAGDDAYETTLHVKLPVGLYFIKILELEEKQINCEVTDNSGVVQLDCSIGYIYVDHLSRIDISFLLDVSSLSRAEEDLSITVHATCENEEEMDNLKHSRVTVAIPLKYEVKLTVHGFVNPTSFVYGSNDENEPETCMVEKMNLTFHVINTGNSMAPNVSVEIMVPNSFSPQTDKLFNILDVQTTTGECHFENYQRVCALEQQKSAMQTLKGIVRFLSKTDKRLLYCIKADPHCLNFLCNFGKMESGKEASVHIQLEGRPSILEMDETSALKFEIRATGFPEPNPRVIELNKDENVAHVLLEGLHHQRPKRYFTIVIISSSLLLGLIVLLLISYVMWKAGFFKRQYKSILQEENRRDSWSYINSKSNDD
T1 sequence (P05556 21-798): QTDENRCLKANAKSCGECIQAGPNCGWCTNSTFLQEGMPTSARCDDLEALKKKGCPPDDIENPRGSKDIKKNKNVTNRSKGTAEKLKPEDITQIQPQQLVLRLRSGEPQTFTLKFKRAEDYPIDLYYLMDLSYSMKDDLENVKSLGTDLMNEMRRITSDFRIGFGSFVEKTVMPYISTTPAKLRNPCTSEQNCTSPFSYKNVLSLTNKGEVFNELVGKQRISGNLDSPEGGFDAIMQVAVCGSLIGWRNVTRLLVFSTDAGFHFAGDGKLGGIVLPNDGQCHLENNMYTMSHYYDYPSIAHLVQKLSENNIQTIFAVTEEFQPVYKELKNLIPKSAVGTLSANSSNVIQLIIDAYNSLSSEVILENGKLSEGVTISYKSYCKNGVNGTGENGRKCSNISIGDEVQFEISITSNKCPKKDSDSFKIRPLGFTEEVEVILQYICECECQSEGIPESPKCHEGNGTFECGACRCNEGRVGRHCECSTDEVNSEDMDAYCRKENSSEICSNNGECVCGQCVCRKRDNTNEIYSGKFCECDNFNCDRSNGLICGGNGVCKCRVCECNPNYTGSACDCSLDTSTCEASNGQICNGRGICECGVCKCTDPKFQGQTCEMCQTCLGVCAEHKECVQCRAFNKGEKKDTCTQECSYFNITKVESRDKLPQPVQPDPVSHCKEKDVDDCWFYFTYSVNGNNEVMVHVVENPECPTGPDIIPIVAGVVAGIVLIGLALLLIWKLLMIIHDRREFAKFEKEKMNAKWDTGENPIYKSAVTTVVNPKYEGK
Method: U937 cells were suspended in the HEPES buffer (see above) 1×10^6 cells/ml, 100 μl aliquots (10^5 cells) were incubated with different concentrations of unlabeled compounds for 10 min. Next, 20 μl of PE-labeled HUTS-21 antibodies was added and cells were incubated for additional […] at room temperature. Next, cells were washed with 1 ml of HEPES buffer, resuspended in 300-500 μl of buffer and analyzed by flow cytometry (FL2 channel, BD FACScan). The data were plotted as mean channel fluorescence vs. the concentration of the compound. The data were fitted to a sigmoidal dose-response equation. To determine the level of nonspecific binding, cells were stained in parallel with the isotype control antibodies.

LFA-1 = molecular target: T2, LFA-1 (Homo sapiens, UniProt P05107+P20701); assay: Binding of MEM-148 mAbs to U937 cells (epitope exposure); assay type: cell-based
T2 construct: host or cells: U937 (human histiocytic lymphoma)
T2 sequence (P20701 26-1170): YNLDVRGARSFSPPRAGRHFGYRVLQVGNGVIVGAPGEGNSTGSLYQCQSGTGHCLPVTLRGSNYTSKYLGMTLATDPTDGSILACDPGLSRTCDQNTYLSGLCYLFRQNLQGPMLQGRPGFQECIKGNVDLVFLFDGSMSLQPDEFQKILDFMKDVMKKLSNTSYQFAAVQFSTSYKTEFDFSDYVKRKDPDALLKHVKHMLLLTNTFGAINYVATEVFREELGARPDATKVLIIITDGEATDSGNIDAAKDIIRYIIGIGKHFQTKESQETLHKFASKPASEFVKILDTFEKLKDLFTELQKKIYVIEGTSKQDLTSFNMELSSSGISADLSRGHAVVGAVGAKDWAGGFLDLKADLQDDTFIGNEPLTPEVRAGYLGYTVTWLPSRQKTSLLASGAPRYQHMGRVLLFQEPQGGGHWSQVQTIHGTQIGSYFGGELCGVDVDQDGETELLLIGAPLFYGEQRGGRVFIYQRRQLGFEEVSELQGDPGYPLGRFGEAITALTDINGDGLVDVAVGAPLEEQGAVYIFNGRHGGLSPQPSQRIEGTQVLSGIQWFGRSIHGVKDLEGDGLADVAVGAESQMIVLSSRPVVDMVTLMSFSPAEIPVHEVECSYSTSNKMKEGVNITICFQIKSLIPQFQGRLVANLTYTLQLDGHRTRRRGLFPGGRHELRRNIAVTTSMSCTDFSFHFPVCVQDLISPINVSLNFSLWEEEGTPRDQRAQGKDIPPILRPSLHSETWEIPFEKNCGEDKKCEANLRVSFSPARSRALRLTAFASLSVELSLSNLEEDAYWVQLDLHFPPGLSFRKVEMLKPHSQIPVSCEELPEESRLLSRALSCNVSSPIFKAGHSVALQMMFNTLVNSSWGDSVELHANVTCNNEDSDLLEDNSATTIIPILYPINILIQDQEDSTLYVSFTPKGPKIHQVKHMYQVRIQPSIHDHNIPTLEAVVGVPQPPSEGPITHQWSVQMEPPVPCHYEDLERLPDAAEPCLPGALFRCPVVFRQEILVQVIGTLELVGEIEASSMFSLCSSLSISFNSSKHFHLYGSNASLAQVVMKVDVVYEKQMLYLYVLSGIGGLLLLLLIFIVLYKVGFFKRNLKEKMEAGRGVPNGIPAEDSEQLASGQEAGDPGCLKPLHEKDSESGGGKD
T2 sequence (P05107 23-769): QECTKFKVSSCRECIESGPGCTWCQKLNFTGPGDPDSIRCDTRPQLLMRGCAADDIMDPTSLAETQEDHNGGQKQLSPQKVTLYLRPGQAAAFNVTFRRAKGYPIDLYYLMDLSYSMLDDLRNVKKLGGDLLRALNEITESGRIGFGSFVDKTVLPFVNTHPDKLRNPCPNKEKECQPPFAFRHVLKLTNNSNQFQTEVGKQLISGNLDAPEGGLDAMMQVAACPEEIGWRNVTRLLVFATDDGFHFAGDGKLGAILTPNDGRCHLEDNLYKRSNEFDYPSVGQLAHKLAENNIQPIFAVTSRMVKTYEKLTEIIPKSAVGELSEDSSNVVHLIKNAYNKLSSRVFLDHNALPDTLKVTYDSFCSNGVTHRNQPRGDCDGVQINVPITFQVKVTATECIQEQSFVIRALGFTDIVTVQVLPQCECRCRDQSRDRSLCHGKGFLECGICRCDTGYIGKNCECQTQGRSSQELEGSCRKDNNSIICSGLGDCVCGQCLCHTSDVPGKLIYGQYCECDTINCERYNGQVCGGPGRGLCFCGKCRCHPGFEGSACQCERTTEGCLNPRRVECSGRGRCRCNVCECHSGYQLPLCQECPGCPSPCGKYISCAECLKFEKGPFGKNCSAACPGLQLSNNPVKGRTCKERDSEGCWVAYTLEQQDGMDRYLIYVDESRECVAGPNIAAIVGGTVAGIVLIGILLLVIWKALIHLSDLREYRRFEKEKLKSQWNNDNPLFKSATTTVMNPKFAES
Text: In order to confirm that similar results can be obtained with other integrins we have constructed a 3D model of αLβ2-integrin (LFA-1, CD11a/CD18). Amino acid residue critical for the binding of MEM-148 mAb to β2-integrin subunit (Pro 374) was highlighted as green space fill (1). This model was compared to the model of β1-integrin subunit, where critical residues (Ser370, Glu371, and Lys417) were highlighted in a similar way (2) (FIG. 8). It is worth noting that critical residues for both mAbs are positioned in a similar way on the inner side of the hybrid domain. Since the outward movement of the hybrid domain, induced by a ligand binding (at least for β1-integrin (2)), can be used to report occupancy of the ligand binding pocket (3), we decided to use MEM-148 mAbs to probe LFA-1 integrin conformation upon ligand binding.
To test this possibility, two αLβ2-integrin ligands were synthesized as described previously. Compound 3 (Genentech) and XVA143 (Roche) are shown to be LFA-1 specific antagonists (4) FIG. 9.

VLA-4 [3] = molecular target: T1, VLA-4; assay: Detection of VLA-4 allosteric antagonists: HUTS-21 binding inhibition screen of the Prestwick Chemical Library
Method: 5 μl RPMI was added to columns 2-24. Column 1 was left empty for flow cytometry data binning purposes. Test compounds in DMSO (Prestwick Chemical Library, PCL) were added and mixed (0.1 μl of 1 mM stock solution). […] Compounds were added to 320 wells (columns 3-22). […] Columns 23, 24 were used for the positive control (no test compounds added). Next, 5 μl aliquots of U937 cells were suspended in RPMI 1640 at 3×10^6 cells/ml, loaded in 384 well plates, and mixed (1×10^6 cells/ml final). Cells were incubated for 10 min at RT. This time is sufficient for the binding of a small molecule (˜1 kD) at 10 μM at RT. […] Plates were incubated for 1 hour at 37° C. According to the real-time kinetic studies this time was sufficient to reach equilibrium. Next, wells were sampled using the high throughput flow cytometry platform (HyperCyt) at UNMCMD.
After data acquisition by the flow cytometer (CyAn™ ADP), proprietary software was used to analyze the data files (IDLQuery, at UNMCMD, developed by Bruce Edwards). The data were exported into a Microsoft Excel spreadsheet template, and the value for antibody binding inhibition (%) was calculated for each well as follows: % Inhibition=100(1−((MCFtest−MCFneg.control)/MCFpos.control−MCFneg.control))), where, MCF is mean channel fluorescence of cells with test compounds, and positive or negative control wells.

VLA-4 [4] = molecular target: T1, VLA-4; assay: Real-time binding of HUTS-21 antibodies to U937 cells; assay type: cell-based; set-up: host or cells: U937 (human histiocytic lymphoma); in part of the real-time experiments U937 stably transfected with a non-desensitizing FPR mutant, where VLA-4 itself is endogenous; conditions: 1 nM LDV in the absence of the compound
Method: the Ability of a Flow Cytometer to Discriminate between free and bound fluorescent ligand in a homogeneous assay was used to determine the binding kinetics of mAbs in real-time (15; 26). Cells (10^6 cells/ml) were removed from ice and warmed in HEPES buffer containing 0.1% HSA for 10 min at 37° C. […] Screening hits at saturating concentration (10-30 μM final) or DMSO (vehicle) were added at point 0.

[5] = molecular target: VLA-4 (very late antigen 4, CD49d/CD29, alpha4beta1 integrin) (human) (UniProt P13612); assay: flow cytometry on U937 cells, PE-HUTS-21 with rising LDV
Sequence of VLA-4 (very late antigen 4, CD49d/CD29, alpha4beta1 integrin) (human) (P13612 34-1032, chain 1 of 2): as the sequence (P13612 34-1032) above
Sequence of VLA-4 (very late antigen 4, CD49d/CD29, alpha4beta1 integrin) (human) (P05556 21-798, chain 2 of 2, further chain): as the sequence (P05556 21-798) above

Compound: c1cc(CN2CCCNCCNCCCNCC2)ccc1CN1CCCNCCNCCCNCC1 [AMD3100, AMD3100 octahydrochloride]
WBC count increase ([1]; AMD3100 5 mg/kg intraperitoneal, versus vehicle): ~2.1 fold
CFU/ml in peripheral Blood [1]: 511.8 ± 78.8^a CFU/ml
WBC count/ml × 10^6 [1]: 7.8 ± 0.7^b count/ml × 10^6

Compound: COc1cccc(OC)c1-c1ccc(C[C@H](NC(=O)c2c(Cl)cccc2Cl)C(=O)O)cc1 [TR14035, N-(2,6-dichlorobenzoyl)-(L)-4-(2′,6′-bis-methoxyphenyl)phenylalanine]
LIBS (HUTS-21 epitope) exposure (VLA-4 [2]): resulted in the LIBS exposure

Compound: CSc1ccc2c(c1)N(CCC1CCCCN1C)c1ccccc1S2 (stereo not drawn) [Thioridazine, Thioridazine hydrochloride]
CFU/ml in peripheral Blood [1]: 216.8 ± 42.1 CFU/ml
WBC count/ml × 10^6 [1]: 3.0 ± 0.3 count/ml × 10^6

exposure of MEM-148 epitope (LFA-1): induced exposure of MEM-148 epitope
Compound: O=C(NCc1cccc(O)c1)c1cc(Cl)c(C(=O)N[C@@H](CNC(=O)c2cc(O)cc(O)c2)C(=O)O)c(Cl)c1 [XVA143]

antagonistic activity in the HUTS-21 based screen (VLA-4 [3]): did not show any antagonistic activity
Compound: O=C(CCCN1CCC(O)(c2ccc(Cl)cc2)CC1)c1ccc(F)cc1 [haloperidol]

antagonistic activity in the HUTS-21 based screen (VLA-4 [3]): did not show any antagonistic activity
Compound: CCN(CC)CCNC(=O)c1cc(Cl)c(N)cc1OC [metoclopramide]

Compound: OCCN1CCN(CCCN2c3ccccc3Sc3ccc(Cl)cc32)CC1 [perphenazine]
LDV concentration required to induce HUTS-21 binding in the presence of the compound (VLA-4 [4]): 0.1 µM

antagonistic activity in the HUTS-21 based screen (VLA-4 [3]): did not show any antagonistic activity
Compound: CCN1CCCC1CNC(=O)c1cc(S(N)(=O)=O)ccc1OC (stereo not drawn) [sulpiride]

signal to background ratio [5]: 10
Compound: Mouse anti-human CD29, HUTS-21 (PE) (antibody)
